Laboratory results: patent publication US8609727B2, “Dicarboxylic acid derivatives and their use” (Bayer Intellectual Property GmbH, priority 2005, dated 2013)

What was measured:
[1] = target: T1, Haem-free sGC (recombinant soluble guanylate cyclase) (Rattus norvegicus, UniProt P20595); assay: Stimulation of recombinant soluble guanylate cyclase (sGC) in vitro, haem-free enzyme; assay type: biochemical
T1 construct: made in house; host or cells: Sf9 insect cells (baculovirus)
T1 sequence (P20595 1-619): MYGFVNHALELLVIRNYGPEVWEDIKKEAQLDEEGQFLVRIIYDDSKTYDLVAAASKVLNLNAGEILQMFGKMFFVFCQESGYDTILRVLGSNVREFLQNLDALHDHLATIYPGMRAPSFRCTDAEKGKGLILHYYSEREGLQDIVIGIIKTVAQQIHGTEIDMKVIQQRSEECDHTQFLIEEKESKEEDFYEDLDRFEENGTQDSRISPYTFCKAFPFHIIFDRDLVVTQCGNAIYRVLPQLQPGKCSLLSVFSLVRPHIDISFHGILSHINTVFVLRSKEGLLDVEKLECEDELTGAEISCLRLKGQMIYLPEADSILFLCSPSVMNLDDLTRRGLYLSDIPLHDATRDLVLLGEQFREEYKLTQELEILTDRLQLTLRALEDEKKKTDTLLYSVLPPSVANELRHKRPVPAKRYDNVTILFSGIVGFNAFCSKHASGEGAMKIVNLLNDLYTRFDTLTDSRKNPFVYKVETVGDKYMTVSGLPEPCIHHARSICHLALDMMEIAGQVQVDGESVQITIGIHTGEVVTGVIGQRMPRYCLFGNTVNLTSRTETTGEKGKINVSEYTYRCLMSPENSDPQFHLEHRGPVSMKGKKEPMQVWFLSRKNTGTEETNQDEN
T1 sequence (P19686 1-690 partner): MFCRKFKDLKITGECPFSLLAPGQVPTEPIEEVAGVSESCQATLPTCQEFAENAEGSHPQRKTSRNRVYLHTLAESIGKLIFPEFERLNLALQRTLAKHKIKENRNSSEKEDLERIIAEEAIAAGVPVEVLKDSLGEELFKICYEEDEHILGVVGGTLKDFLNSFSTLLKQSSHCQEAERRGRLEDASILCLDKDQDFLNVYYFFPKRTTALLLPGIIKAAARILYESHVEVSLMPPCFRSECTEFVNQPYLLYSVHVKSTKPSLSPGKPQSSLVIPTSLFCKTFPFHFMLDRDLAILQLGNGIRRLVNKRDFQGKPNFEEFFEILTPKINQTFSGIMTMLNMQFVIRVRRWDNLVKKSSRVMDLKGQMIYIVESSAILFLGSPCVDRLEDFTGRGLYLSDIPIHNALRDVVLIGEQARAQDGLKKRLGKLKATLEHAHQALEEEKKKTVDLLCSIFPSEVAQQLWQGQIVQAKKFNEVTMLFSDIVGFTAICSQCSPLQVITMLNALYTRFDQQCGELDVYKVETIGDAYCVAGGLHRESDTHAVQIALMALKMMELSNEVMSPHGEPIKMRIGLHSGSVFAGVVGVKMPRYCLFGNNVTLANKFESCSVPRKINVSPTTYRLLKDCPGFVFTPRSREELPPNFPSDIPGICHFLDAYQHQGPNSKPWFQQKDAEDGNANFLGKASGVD
Procedure: (§1) B-2. Stimulation of Recombinant Soluble Guanylate Cyclase (sGC) In Vitro:
Investigations on the stimulation of recombinant soluble guanylate cyclase (sGC) by the compounds according to the invention with and without sodium nitroprusside, and with and without the haem-dependent sGC inhibitor 1H-1,2,4-oxadiazole-(4,3a)-quinoxalin-1-one (ODQ) are carried out by the method described in detail in the following reference: M. Hoenicka, E. M. Becker, H. Apeler, T. Sirichoke, H. Schroeder, R. Gerzer and J.-P. Stasch, “Purified soluble guanylyl cyclase expressed in a baculovirus/Sf9 system: Stimulation by YC-1, nitric oxide, and […]”, J. Mol. Med. 77 (1999), 14-23. The haem-free guanylate cyclase is obtained by adding Tween 20 to the sample buffer (0.5% in the final concentration).
(§2) The activation of sGC by a test substance is reported as n-fold stimulation of the basal activity.

[2] = target: T2, Haem-containing sGC (recombinant soluble guanylate cyclase) (Rattus norvegicus, UniProt P20595); assay: Stimulation of recombinant soluble guanylate cyclase (sGC) in vitro, haem-containing enzyme; assay type: biochemical
T2 construct: made in house; host or cells: Sf9 insect cells (baculovirus)
T2 sequence (P20595 1-619): T1 sequence (P20595 1-619)
T2 sequence (P19686 1-690 partner): T1 sequence (P19686 1-690 partner)
Description: as §1
Hoenicka, E. M. Becker, H. Apeler, T. Sirichoke, H. Schroeder, R. Gerzer and J.-P. Stasch, “Purified soluble guanylyl cyclase expressed in a baculovirus/Sf9 system: Stimulation by YC-1, nitric oxide, and carbon oxide”, J. Mol. Med. 77 (1999), 14-23. The haem-free guanylate cyclase is obtained by adding Tween 20 to the sample buffer (0.5% in the final concentration).
as §2

saphenous artery rings = assay: Vasorelaxant effect in vitro (phenylephrine-contracted artery rings); assay type: cell-based, Rabbits; conditions: rabbit saphenous artery rings, contraction induced by phenylephrine
Procedure: B-1. Vasorelaxant Effect In Vitro:
Rabbits are anaesthetized and sacrificed by intravenous injection of thiopental sodium (about 50 mg/kg) and exsanguinated. The saphenous artery is removed and divided into rings 3 mm wide. The rings are mounted singly on in each case a pair of triangular hooks open at the end and made of 0.3 mm-thick special wire (Remanium®). Each ring is placed under an initial tension in 5 ml organ baths with Krebs-Henseleit solution which is at 37° C., is gassed with 95% O2/5% CO2 and has the following composition: NaCl 119 mM; KCl 4.8 mM; CaCl2×2H2O 1 mM; MgSO4×7H2O 1.4 mM; KH2PO4 1.2 mM; NaHCO3 25 mM; glucose 10 mM; bovine serum albumin 0.001%. The force of contraction is detected with Statham UC2 cells, amplified and digitized via A/D converters (DAS-1802 HC, Keithley Instruments, Munich) and recorded in parallel on chart recorders. Contractions are induced by addition of phenylephrine.
After several (generally 4) control cycles, the substance to be investigated is added in each further run in increasing dosage, and the height of the contraction achieved under the influence of the test substance is compared with the height of the contraction reached in the last preceding run. The concentration necessary to reduce the contraction reached in the preceding control by 50% is calculated from this (IC50). The standard application volume is 5 μl. The proportion of DMSO in the bath solution corresponds to 0.1%.

conscious SH rats = assay: Radiotelemetric measurement of blood pressure and heart rate on conscious SH rats; assay type: in vivo, spontaneously hypertensive rats (SH rats); conditions: oral administration of 0.3 mg/kg
Description: B-3. Radiotelemetric Measurement of Blood Pressure and Heart Rate on Conscious SH Rats
A commercially available telemetry system from Data Sciences International DSI, USA, is employed for the measurements on conscious SH rats described below.
The system consists of 3 main components: (1) implantable transmitter, (2) receiver which is linked via a multiplexer to a (3) data acquisition computer. The telemetry system makes it possible to record continuously the blood pressure and heart rate on conscious animals in their usual habitat.
The investigations are carried out on adult female spontaneously hypertensive rats (SH rats) with a body weight of >200 g. After transmitter implantation, the experimental animals are housed singly in type 3 Makrolon cages. They have free access to standard feed and water. […]
The telemetry measuring unit is configured for 24 animals. Each experiment is recorded under an experiment number.
Each of the instrumented rats living in the system is assigned a separate receiving antenna (1010 Receiver, DSI). […] The emitted signals can be detected online by a data acquisition system (Dataquest™ A.R.T. for Windows, DSI) and be appropriately processed. […]
In the standard procedure, the following are measured for 10-second periods in each case: (1) systolic blood pressure (SBP), (2) diastolic blood pressure (DBP), (3) mean arterial pressure (MAP) and (4) heart rate (HR). […]

`O=C(O)c1ccc(CCC(/C=C/c2ccccc2OCCCCCc2ccccc2)Cc2ccc(C(=O)O)cc2)cc1` (racemic) [Example 5, 4-((4E)-3-(4-Carboxybenzyl)-5-{2-[(5-phenylpentyl)oxy]phenyl}pent-4-en-1-yl)benzoic Acid] was tested, and the “Stimulation (n-fold) Haem-free sGC Basal” value ([1]; 0.001 μM Example 5) was 19.2 n-fold, the “Stimulation (n-fold) Haem-free sGC +10 μM ODQ” value ([1]; 0.001 μM Example 5 +10 μM ODQ) was 18.4 n-fold and the “Stimulation (n-fold) Haem-free sGC Basal” value ([1]; 0.01 μM Example 5) was 105.8 n-fold. The “Stimulation (n-fold) Haem-free sGC +10 μM ODQ” value ([1]; 0.01 μM Example 5 +10 μM ODQ) was 100.5 n-fold, the “Stimulation (n-fold) Haem-free sGC Basal” value ([1]; 0.1 μM Example 5) was 185.3 n-fold and the “Stimulation (n-fold) Haem-free sGC +10 μM ODQ” value ([1]; 0.1 μM Example 5 +10 μM ODQ) was 170.4 n-fold. The “Stimulation (n-fold) Haem-free sGC Basal” value ([1]; 1 μM Example 5) was 201.2 n-fold, the “Stimulation (n-fold) Haem-free sGC +10 μM ODQ” value ([1]; 1 μM Example 5 +10 μM ODQ) was 189.2 n-fold and the “Stimulation (n-fold) Haem-free sGC Basal” value ([1]; 10 μM Example 5) was 203.1 n-fold. The “Stimulation (n-fold) Haem-free sGC +10 μM ODQ” value ([1]; 10 μM Example 5 +10 μM ODQ) was 180.7 n-fold, the “Stimulation (n-fold) Haem-containing sGC Basal” value ([2]; 0.001 μM Example 5) was 3.5 n-fold and the “Stimulation (n-fold) Haem-containing sGC +0.1 μM DEA/NO” value ([2]; 0.001 μM Example 5 +0.1 μM DEA/NO) was 88.3 n-fold. For the same compound, the “Stimulation (n-fold) Haem-containing sGC +10 μM ODQ” value ([2]; 0.001 μM Example 5 +10 μM ODQ) was 40.3 n-fold, the “Stimulation (n-fold) Haem-containing sGC Basal” value ([2]; 0.01 μM Example 5) was 17.2 n-fold and the “Stimulation (n-fold) Haem-containing sGC +0.1 μM DEA/NO” value ([2]; 0.01 μM Example 5 +0.1 μM DEA/NO) was 102.9 n-fold. The “Stimulation (n-fold) Haem-containing sGC +10 μM ODQ” value ([2]; 0.01 μM Example 5 +10 μM ODQ) was 83.0 n-fold, the “Stimulation (n-fold) Haem-containing sGC Basal” value ([2]; 0.1 μM Example 5) was 35.1 n-fold and the “Stimulation (n-fold) Haem-containing sGC +0.1 μM DEA/NO” value ([2]; 0.1 μM Example 5 +0.1 μM DEA/NO) was 123.1 n-fold. The “Stimulation (n-fold) Haem-containing sGC +10 μM ODQ” value ([2]; 0.1 μM Example 5 +10 μM ODQ) was 149.5 n-fold, the “Stimulation (n-fold) Haem-containing sGC Basal” value ([2]; 1 μM Example 5) was 44.2 n-fold and the “Stimulation (n-fold) Haem-containing sGC +0.1 μM DEA/NO” value ([2]; 1 μM Example 5 +0.1 μM DEA/NO) was 124.1 n-fold. For the same compound, the “Stimulation (n-fold) Haem-containing sGC +10 μM ODQ” value ([2]; 1 μM Example 5 +10 μM ODQ) was 162.1 n-fold, the “Stimulation (n-fold) Haem-containing sGC Basal” value ([2]; 10 μM Example 5) was 59.5 n-fold and the “Stimulation (n-fold) Haem-containing sGC +0.1 μM DEA/NO” value ([2]; 10 μM Example 5 +0.1 μM DEA/NO) was 152.0 n-fold. The “Stimulation (n-fold) Haem-containing sGC +10 μM ODQ” value ([2]; 10 μM Example 5 +10 μM ODQ) was 171.2 n-fold, the “Synergy of combination with NO donor DEA/NO on sGC stimulation” value ([2]; combination with DEA/NO) was “no synergistic effect” and the IC50 (saphenous artery rings) was 4.9 nM.
In the case of `CCCCCCOc1ccccc1/C=C/C(CCc1ccc(C(=O)O)cc1)Cc1ccc(C(=O)O)cc1` (racemic) [Example 20, 4-{(4E)-3-(4-Carboxybenzyl)-5-[2-(hexyloxy)phenyl]pent-4-en-1-yl}benzoic Acid], the IC50 (saphenous artery rings; Oryctolagus cuniculus) is reported as 0.7 nM, the “Period of blood pressure reduction” value (conscious SH rats) is reported as 11 h and the “Reduction in blood pressure” value (conscious SH rats) is reported as “marked reduction in blood pressure”.
